How the values were obtained:
[1] = target: high affinity nicotinic receptors; test: Inhibition of L-[3H]nicotine binding to mouse brain membrane preparations; design: species or system mouse (DBA strain); details: mouse brain membranes, 2 hr at 4° C., Ki calculated from IC50 by Cheng method
Protocol: Mice (DBA strain) were maintained on a 12 hour light/dark cycle and were allowed free access to water and food supplied by Wayne Lab Blox, Madison, WI. Animals used in the present studies were 60 to 90 days of age and weighed 20 to 25 g. Brain membrane preparations were obtained from pooled brain tissue of both males and females.
Mice were killed by cervical dislocation. Brains were removed and placed on an ice-cold platform. The cerebellum was removed and the remaining tissue was placed in 10 volumes (weight:volume) of ice-cold buffer (Krebs-RingersHEPES:NaCl, 118 mM; KCl, 4.8 mM; CaCl2, 2.5 mM; MgSO4, 1.2 mM; HEPES, 20 mM; pH to 7.5 with NaOH) and homogenized with a glass-Teflon tissue grinder. The resulting homogenate was centrifuged at 18000×g for 20 min. and the resulting pellet was resuspended in 20 volumes of water. After 60 min. incubation at 4.C, a new pellet was collected by centrifugation at 18000×g for 20 min. After resuspension in 10 volumes of buffer, a new final pellet was again collected by centrifugation at 18000×g for 20 min. Prior to each centrifugation step, the suspension was incubated at 37° C. for 5 min. to promote hydrolysis of endogenous acetylcholine. The final pellet was overlayered with buffer and stored at -70° C. On the day of the assay, that pellet was thawed, resuspended in buffer and centrifuged at 18000×g for 20 min. The resulting pellet obtained was resuspended in buffer to a final concentration of approximately 5 mg protein/ml. Protein was determined by the method of Lowry, et al., J. Biol. Chem., Vol. 193, pp. 265-275 (1951), using bovine serum albumin as the standard.
The binding of L-[^3 H]nicotine was measured using a modification of the method of Romano, et al., Science, Vol. 210, pp. 647-650 (1980) as described previously by Marks, et al., Mol. Pharmacol., Vol. 30, pp. 427-436 (1986). The binding of L-[^3 H]nicotine was measured using a 2 hr. incubation at 4° C. Incubations contained about 500 μg of protein and were conducted in 12 mm×75 mm polypropylene test tubes in a final incubation volume of 250 μl. The incubation buffer was Krebs-Ringers HEPES containing 200 mM TRIS buffer, pH 7.5. The binding reaction was terminated by filtration of the protein containing bound ligand onto glass fiber filters (Micro Filtration Systems) that had been soaked in buffer containing 0.5 percent polyethyleneimine. Filtration vacuum was -50 to -100 torr. Each filter was washed five times with 3 ml of ice-cold buffer. The filtration apparatus was cooled to 2° C. before use and was kept cold through the filtration process. Nonspecific binding was determined by inclusion of 10 μM nonradioactive nicotine in the incubations. The inhibition of L-[^3 H]nicotine binding by test compounds was determined by including one of eight different concentrations of the test compound in the incubation. Inhibition profiles were measured using 10 nM L-[^3 H]nicotine and IC50 values were estimated as the concentration of compound that inhibited 50 percent of specific L-[^3 H]nicotine binding. Inhibition constants (Ki values) were calculated from the IC50 values using the method of Cheng, et al., Biochem. Pharmacol., Vol. 22, pp. 3099-3108 (1973). […] The L-[^3 H]nicotine used in all experiments was purified chromatographically by the method of Romm, et al., Life Sci., Vol. 46, pp. 935-943 (1990).

[2] = test system: synaptosomes from the striatal area of rat brain; test: [3H]Dopamine release from rat striatal synaptosomes (continuous perfusion); assay type: cell-based, rat (Sprague-Dawley); details: 0.2 ml of a 20 μM solution of ligand, relative to equal concentration of S(-) nicotine, read-out: Dopamine Release (percent release relative to S(-) nicotine)
Protocol: Dopamine release was measured by preparing synaptosomes from the striatal area of rat brain obtained from Sprague-Dawley rats generally according to the procedures set forth by Nagy, et al., J. Neurochem., Vol. 43, pp. 1114-1123 (1984). Striata from 4 rats were homogenized in 2 ml of 0.32M sucrose buffered with 5 mM HEPES (pH 7.5), using a glass-teflon tissue grinder. The homogenate was diluted to 5 ml with additional homogenization solution and centrifuged at 1000×g for 10 min. This procedure was repeated on the new pellet
the resulting supernatant was centrifuged at 12,000×g for 20 min. A 3 layer discontinuous Percoll gradient consisting of 16 percent, 10 percent and 7.5 percent Percoll in HEPES-buffered sucrose was made with the final pellet dispersed in the top layer. After centrifugation at 15,000×g for 20 min., the synaptosomes were recovered above the 16 percent layer with a pasteur pipette, diluted with 8 ml of perfusion buffer (128 mM NaCl, 2.4 mM KCl, 3.2 mM CaCl2, 1.2 mM KH2 PO4, 1.2 mM MgSO4, 25 mM HEPES pH 7.4, 10 mM dextrose, 1 mM ascorbate, 0.01 mM pargyline), and centrifuged at 15,000×g for 20 min. The new pellet was collected and re-suspended in perfusion buffer. The synaptosome suspension was incubated for 10 min. at 37° C. Then [^3 H]dopamine (Amersham, 40-60 Ci/mmol) was added to the suspension to give a final concentration of 0.1 μM in suspension, and the suspension was incubated for another 5 min. Using this method, 30 to 90 percent of the dopamine was taken up into the synaptosomes, as determined by scintillation counting following filtration through glass fiber filters soaked with 0.5 percent polyethyleneimine. A continuous perfusion system was used to monitor release following exposure to each ligand (i.e., 5-fluoronicotine, 5-bromonicotine, 4^1 -methylnicotine, 5'-methylnicotine, and 5-methylnicotine). Synaptosomes were loaded onto glass fiber filters (Gelman type A/E). Perfusion buffer was dripped onto the filters (0.2-0.3 ml/min.) and pulled through the filters with a peristaltic pump. Synaptosomes were washed with perfusion buffer for a minimum of 20 min. before addition of the ligand. After the addition of a 0.2 ml of a 20 μM solution of ligand, the perfusate was collected into scintillation vials at 1 min. intervals and the dopamine released was quantified by scintillation counting. Peaks of radioactivity released above background were summed and the average basal release during that time was subtracted from the total. Release was expressed as a percentage of release obtained with an equal concentration of S(-) nicotine.

For `CC1CC(c2cccnc2)N(C)C1` (racemic) [4^1 -methylnicotine], the Ki [1] was 91 ± 7 nM and the Emax at 20 µM [2] was 40%.

`CC1CCC(c2cccnc2)N1C` (racemic) [5^1 -methylnicotine] was tested, and the Ki [1] was 6400 nM and the Emax at 20 µM [2] was 5%.

For `Cc1cncc(C2CCCN2C)c1` (racemic) [5-methylnicotine], the Ki [1] was 2 ± 0.8 nM and the Emax at 20 µM [2] was 30%.

In the case of `CN1CCCC1c1cncc(Br)c1` (racemic) [5-bromonicotine], the Ki [1] is reported as 44 ± 12 nM and the Emax at 20 µM [2] is reported as 65%.

With `CN1CCCC1c1cncc(F)c1` (racemic) [5-fluoronicotine] the Ki [1] was 61 ± 16 nM and the Emax at 20 µM [2] was 110%.
